Assay results from ChEMBL document CHEMBL1201862, “PubChem BioAssay data set” (2004).
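96-well plates; 48 h exposure; 5 concentrations. Endpoints by linear interpolation between flanking doses. Not reached: highest tested concentration assigned. At the GI50, growth is halved.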 Activity calls are given as the source filed them. Cut-off read from the data, not from the text of the source: active = GI50 up to about 1.1 µM and inactive = higher.

How the values were obtained:
Experiment in all cases: NCI anticancer screen, dose series, 48 h
COLO 205 = test system: COLO 205
DU-145 = test system: DU-145
EKVX = test system: EKVX
HCC 2998 = test system: HCC 2998
HCT-116 = test system: HCT-116
HOP-92 = test system: HOP-92
LOX IMVI = test system: LOX IMVI
MDA-N = test system: MDA-N
MOLT-4 = test system: MOLT-4
Malme-3M = test system: Malme-3M
NCI-H226 = test system: NCI-H226
NCI-H460 = test system: NCI-H460
OVCAR-4 = test system: OVCAR-4
RXF 393 = test system: RXF 393
SF-268 = test system: SF-268
SK-MEL-5 = test system: SK-MEL-5
T47D = test system: T47D
UACC-257 = test system: UACC-257
UO-31 = test system: UO-31
MDA-MB-231 = test system: MDA-MB-231

Measured: GI50

Cc1cc(S(=O)(=O)Nc2nc(N)nc(N(C)C)n2)c(SC(C(=O)O)c2ccccc2)cc1Cl (stereo not drawn)
inactive: COLO 205 > 10 µM | DU-145 > 10 µM | EKVX > 10 µM | HCC 2998 > 10 µM | HCT-116 > 10 µM | HOP-92 > 10 µM | LOX IMVI > 10 µM | MDA-N > 10 µM | MOLT-4 > 10 µM | Malme-3M > 10 µM | NCI-H226 > 10 µM | NCI-H460 > 10 µM | OVCAR-4 > 10 µM | RXF 393 > 10 µM | SF-268 > 10 µM | SK-MEL-5 > 10 µM | T47D > 10 µM | UACC-257 > 10 µM | UO-31 > 10 µM

CCCCI(O)OS(=O)(=O)c1ccc(C)cc1
inactive: COLO 205 > 100 µM | DU-145 > 100 µM | EKVX 38 µM | HCC 2998 > 100 µM | HCT-116 > 100 µM | HOP-92 > 100 µM | LOX IMVI 13.9 µM | MDA-MB-231 > 100 µM | MOLT-4 > 100 µM | NCI-H226 > 100 µM | OVCAR-4 > 100 µM | RXF 393 > 100 µM | SF-268 > 100 µM | SK-MEL-5 > 100 µM | T47D > 100 µM | UACC-257 > 100 µM | UO-31 23.9 µM

CC(CO)CCC(O)C(C)(O)C1CCC2(O)C3=CC(=O)C4CC(O)C(O)CC4(C)C3CCC12C (stereo not drawn)
inactive: COLO 205 > 100 µM | DU-145 > 100 µM | EKVX > 100 µM | HCC 2998 > 100 µM | HCT-116 > 100 µM | HOP-92 > 100 µM | LOX IMVI > 100 µM | MDA-MB-231 > 100 µM | MDA-N > 100 µM | MOLT-4 > 100 µM | Malme-3M > 100 µM | NCI-H226 > 100 µM | NCI-H460 > 100 µM | OVCAR-4 > 100 µM | RXF 393 > 100 µM | SK-MEL-5 > 100 µM | UACC-257 > 100 µM | UO-31 > 100 µM

CN1C(=O)C(O)CC1c1ccccc1C(F)(F)F (stereo not drawn)
inactive: COLO 205 > 100 µM | DU-145 > 100 µM | EKVX > 100 µM | HCC 2998 > 100 µM | HCT-116 > 100 µM | HOP-92 > 100 µM | LOX IMVI > 100 µM | MDA-MB-231 > 100 µM | MDA-N > 100 µM | MOLT-4 > 100 µM | Malme-3M > 100 µM | NCI-H226 > 100 µM | NCI-H460 > 100 µM | OVCAR-4 > 100 µM | RXF 393 > 100 µM | SK-MEL-5 > 100 µM | UACC-257 > 100 µM | UO-31 > 100 µM

Brc1ccc2nc(-c3cccs3)nc(N3CCN(c4ccccc4)CC3)c2c1
inactive: COLO 205 > 100 µM | DU-145 > 100 µM | EKVX > 100 µM | HCC 2998 > 100 µM | HCT-116 > 100 µM | HOP-92 > 100 µM | LOX IMVI > 100 µM | MDA-MB-231 > 100 µM | Malme-3M > 100 µM | NCI-H226 > 100 µM | NCI-H460 > 100 µM | OVCAR-4 > 100 µM | SF-268 > 100 µM | SK-MEL-5 > 100 µM | T47D > 100 µM | UACC-257 > 100 µM | UO-31 > 100 µM

N#Cc1c(-c2ccccc2)c(C#N)c(=S)n(C2OC(CO)C(O)C(O)C2O)c1O (stereo not drawn)
inactive: DU-145 > 100 µM | LOX IMVI > 100 µM | MDA-MB-231 > 100 µM | MDA-N > 100 µM | MOLT-4 > 100 µM | Malme-3M > 100 µM | NCI-H226 > 100 µM | NCI-H460 > 100 µM | RXF 393 > 100 µM | SF-268 > 100 µM | SK-MEL-5 > 100 µM | T47D > 100 µM | UACC-257 > 100 µM | UO-31 > 100 µM

CCOC(=O)C1(C/C=C\CBr)CCCC1=O (stereo not drawn)
inactive: COLO 205 37.3 µM | DU-145 27.5 µM | EKVX > 100 µM | HCT-116 19.5 µM | LOX IMVI 15.7 µM | MDA-MB-231 25.6 µM | Malme-3M 48.1 µM | NCI-H226 20.8 µM | OVCAR-4 34.4 µM | RXF 393 16.6 µM | SF-268 32.5 µM | SK-MEL-5 26.7 µM | T47D 30.5 µM | UACC-257 39 µM | UO-31 21.9 µM

COc1cc(C2c3cc4c(c(O)c3C(=O)C3CCC(=O)N32)OCO4)cc(OC)c1OC (stereo not drawn)
inactive: COLO 205 5.52 µM | DU-145 > 100 µM | EKVX > 100 µM | HCC 2998 32 µM | HCT-116 56.4 µM | HOP-92 34.4 µM | LOX IMVI 52.5 µM | MDA-N 30.4 µM | MOLT-4 37.9 µM | Malme-3M 39.9 µM | NCI-H226 38.3 µM | NCI-H460 52.6 µM | OVCAR-4 > 100 µM | SF-268 57 µM | SK-MEL-5 23.9 µM | T47D 99.5 µM | UACC-257 > 100 µM | UO-31 26.7 µM

C[C@]12CC[C@H](O)CC1=CC[C@@H]1[C@@H]2CC[C@]2(C)C(=O)/C(=C/c3ccc([N+](=O)[O-])cc3)C[C@@H]12
inactive: DU-145 13.4 µM | EKVX 8.91 µM | HCC 2998 20 µM | HCT-116 13.7 µM | HOP-92 9.16 µM | LOX IMVI 10 µM | MDA-N 51.5 µM | MOLT-4 > 100 µM | Malme-3M 20.1 µM | NCI-H226 2.96 µM | NCI-H460 23.8 µM | OVCAR-4 8 µM | RXF 393 8.95 µM | SF-268 6.85 µM | SK-MEL-5 16.3 µM | T47D 14.3 µM | UACC-257 21.1 µM | UO-31 11 µM

C/C(=N\O)c1ccc2ccc3ccccc3c2c1
inactive: COLO 205 37.3 µM | DU-145 33.3 µM | EKVX 15.3 µM | HCT-116 90.6 µM | LOX IMVI 24.5 µM | MDA-MB-231 28.1 µM | MOLT-4 18.5 µM | Malme-3M 23.1 µM | NCI-H226 26.4 µM | NCI-H460 42.6 µM | OVCAR-4 23 µM | RXF 393 34.3 µM | SF-268 44.9 µM | SK-MEL-5 19.2 µM | T47D 56.6 µM | UACC-257 22.9 µM | UO-31 35.1 µM

Clc1cccc(/N=C/C=C/Nc2cccc(Cl)c2)c1
inactive: COLO 205 16.3 µM | DU-145 29 µM | EKVX > 10 µM | HCC 2998 11.9 µM | HCT-116 15 µM | HOP-92 42.5 µM | LOX IMVI 6.32 µM | MDA-MB-231 15.7 µM | MDA-N 13.9 µM | MOLT-4 22.2 µM | Malme-3M > 10 µM | NCI-H226 > 10 µM | NCI-H460 17.7 µM | OVCAR-4 40.4 µM | RXF 393 20.8 µM | SF-268 > 10 µM | SK-MEL-5 16.8 µM | UACC-257 16.6 µM | UO-31 16 µM

S=c1sc2ccccc2n1CN1CCN(Cc2ccccc2)CC1
inactive: COLO 205 > 100 µM | DU-145 > 100 µM | EKVX > 100 µM | HCC 2998 > 100 µM | HCT-116 > 100 µM | HOP-92 > 100 µM | LOX IMVI > 100 µM | MOLT-4 > 100 µM | NCI-H226 > 100 µM | NCI-H460 > 100 µM | OVCAR-4 > 100 µM | RXF 393 > 100 µM | SF-268 > 100 µM | SK-MEL-5 > 100 µM | T47D > 100 µM | UACC-257 > 100 µM | UO-31 > 100 µM

N=C(N)N1CCC(N2CCOCC2)CC1
inactive: COLO 205 > 100 µM | DU-145 > 100 µM | EKVX > 100 µM | HCC 2998 > 100 µM | HCT-116 > 100 µM | HOP-92 > 100 µM | MDA-MB-231 > 100 µM | MOLT-4 > 100 µM | Malme-3M > 100 µM | NCI-H226 > 100 µM | NCI-H460 > 100 µM | OVCAR-4 > 100 µM | RXF 393 > 100 µM | SF-268 > 100 µM | SK-MEL-5 > 100 µM | T47D > 100 µM | UACC-257 > 100 µM | UO-31 > 100 µM

O/N=N/c1ccc2ccccc2n1
inactive: COLO 205 > 10 µM | DU-145 > 100 µM | EKVX 90.2 µM | HCT-116 > 100 µM | LOX IMVI > 100 µM | MDA-MB-231 > 100 µM | MDA-N > 100 µM | MOLT-4 > 100 µM | NCI-H226 > 100 µM | NCI-H460 > 100 µM | OVCAR-4 > 100 µM | SF-268 > 100 µM | SK-MEL-5 > 100 µM | T47D > 100 µM | UACC-257 > 100 µM | UO-31 > 100 µM

C[n+]1c(-c2ccc(/C=N\N3CCN(/N=C/c4ccc(-c5cn6ccccc6[n+]5C)cc4)CC3)cc2)cn2ccccc21
inactive: COLO 205 27.1 µM | DU-145 34.4 µM | EKVX 70.8 µM | HCT-116 70.8 µM | HOP-92 26.4 µM | LOX IMVI > 100 µM | MDA-MB-231 27.3 µM | MDA-N 36.2 µM | MOLT-4 68.7 µM | NCI-H226 33 µM | NCI-H460 58.6 µM | OVCAR-4 74.6 µM | RXF 393 24.5 µM | SF-268 48.2 µM | SK-MEL-5 17.8 µM | T47D 34.9 µM | UACC-257 5.24 µM | UO-31 > 100 µM

CC(NC(=O)/C(C#N)=C/c1ccc2[nH]ccc2c1)c1ccccc1 (stereo not drawn)
inactive: COLO 205 17.1 µM | DU-145 16.7 µM | EKVX 22 µM | HCC 2998 19.8 µM | HCT-116 14.9 µM | HOP-92 14.5 µM | LOX IMVI 16.4 µM | MDA-N 16.2 µM | MOLT-4 20.8 µM | Malme-3M 28.2 µM | NCI-H226 24.1 µM | NCI-H460 18.4 µM | OVCAR-4 20.2 µM | RXF 393 19.3 µM | SF-268 21.5 µM | SK-MEL-5 18.2 µM | T47D 20.3 µM | UACC-257 21.3 µM | UO-31 14.7 µM
